Measured values: publication PMC11555526, “Development of 2-Aminoadenine-Based Proteolysis-Targeting Chimeras (PROTACs) as Novel Potent Degraders of Monopolar Spindle 1 and Aurora Kinases” (ACS Pharmacology & Translational Science, 2024)

Tests used:
[1] = target: T1, AURKA (MV4-11^AURKA-HiBiT cells) (Homo sapiens, UniProt O14965); experiment: HiBiT assay, AURKA degradation; type: cell-based; details: 6 h treatment, MV4-11^AURKA-HiBiT cells
T1 construct: expressed in transfected cells; host or cells: MV4-11, lentiviral transduction
T1 sequence (O14965 1-403): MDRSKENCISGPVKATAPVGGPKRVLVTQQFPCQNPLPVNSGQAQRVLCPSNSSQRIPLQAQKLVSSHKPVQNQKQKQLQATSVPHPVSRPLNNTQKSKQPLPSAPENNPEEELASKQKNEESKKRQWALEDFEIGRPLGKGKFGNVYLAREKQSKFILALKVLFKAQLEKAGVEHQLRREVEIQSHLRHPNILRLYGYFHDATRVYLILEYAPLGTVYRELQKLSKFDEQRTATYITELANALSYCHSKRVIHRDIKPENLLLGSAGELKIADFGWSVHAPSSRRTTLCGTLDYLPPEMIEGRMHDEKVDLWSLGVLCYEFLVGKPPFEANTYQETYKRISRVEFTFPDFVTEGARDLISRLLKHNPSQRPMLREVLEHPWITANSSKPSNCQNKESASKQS
How it was run: (§1)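 MV4-11 lines stably expressing HiBiT-tagged AURKA, AURKB or TTK (lentiviral) were treated with serial compound dilutions for the indicated times. Remaining tagged protein was read by lytic HiBiT luminescence, and DC50 was fitted with a four-parameter dose–response equation using concentrations showing sigmoidal behaviour.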

[2] = test system: MV4-11 cells (naive); experiment: alamarBlue cell viability assay; type: cell-based, human; details: 72 h treatment, MV4-11 cells (naive)
How it was run: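 Cells exposed to compound concentration series or vehicle for 72 h (unless otherwise stated); alamarBlue added a few hours before end point. Read-out by fluorescence (ex 550/em 600 nm) or absorbance (570 nm, 600 nm reference).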

[3] = target: T2, AURKB (Homo sapiens, UniProt Q96GD4); experiment: Immunoblot of AURKB in naive MV4-11 cells; type: cell-based; details: 6 h, 0.1 µM
T2 construct: endogenous in cells; host or cells: naive MV4-11
T2 sequence (Q96GD4 whole entry): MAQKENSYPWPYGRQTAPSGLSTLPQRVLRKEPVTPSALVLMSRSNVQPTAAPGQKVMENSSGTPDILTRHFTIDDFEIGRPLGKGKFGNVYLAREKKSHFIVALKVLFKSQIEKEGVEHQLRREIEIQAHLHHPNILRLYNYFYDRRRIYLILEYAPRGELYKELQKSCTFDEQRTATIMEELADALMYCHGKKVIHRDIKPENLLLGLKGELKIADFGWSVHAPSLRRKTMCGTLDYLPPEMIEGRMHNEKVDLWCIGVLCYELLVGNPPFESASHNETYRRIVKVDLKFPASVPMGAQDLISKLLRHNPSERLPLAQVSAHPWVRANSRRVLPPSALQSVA
Procedure: The cells were treated with compounds or vehicle for indicated time points and lysed in RIPA lysis buffer (50 mM HEPES pH 7.9, 140 mM NaCl, 1 mM EDTA, 1% Triton X-100, 0.1% SDS, 0.1% sodium deoxycholate) containing protease and phosphatase inhibitors (Sigma) for 20 min at 4 °C. Cell lysates were cleared by centrifugation, and protein concentration was determined with bicinchoninic acid assay. Equal amounts of protein per sample were separated by Bis-Tris-PAGE and transferred to PVDF membranes (Millipore). The membranes were blocked with 5% (w/v) nonfat dry milk in TBS-T [20 mM Tris–HCl, pH 7.5, 150 mM NaCl, 0.1% (v/v) Tween-20] for 1 h at room temperature and incubated with primary antibody at 4 °C overnight. Visualization was carried out using horseradish peroxidase (HRP)-labeled secondary antibodies and detected using a chemiluminescent HRP substrate (Millipore) in LAS3000 or LAS4000 mini (Fujifilm). Vinculin, GAPDH, or B-actin were used as a loading control. The loading control was probed along with the target antibody by cutting the membrane. For targets with similar molecular weights, the samples were run in duplicate and probed with their respective loading controls, although only one control was shown in the figure for all targets. The signal was quantified using ImageJ or Image Studio Lite against the corresponding loading controls. Antibodies used in this study were as follows: Aurora A/AIK (Cell Signaling Technology, 3092), Aurora B (Bethyl Laboratories, A300–431A), TTK (Santa Cruz Biotechnology, sc-56968), GAPDH (Cell Signaling Technology, 2118), B-Actin (Sigma, A5441), and Vinculin (Sigma, V9131).
α GAPDH α Vinculin α B-Actin
Figure S2: Cellular degradation studies of SF1-based compounds. […]
Immunoblots of TTK and AURKB. Naive MV4-11 cells were treated with indicated concentration of 44 or 47 G)
(E), 18 (F), and 14 or 20 (G) for 6 h and compared with vehicle treated cells. […]
All HiBiT data are represented as a mean ±s.d. from n=2 replicates. […]

[4] = target: T3, AURKB (MV4-11^AURKB-HiBiT cells) (Homo sapiens, UniProt Q96GD4); experiment: HiBiT assay, AURKB degradation; type: cell-based; details: 6 h treatment
T3 construct: expressed in transfected cells; host or cells: MV4-11, lentiviral transduction (pRRL-PGK vector)
T3 sequence (Q96GD4 1-345 isoform Q96GD4-5): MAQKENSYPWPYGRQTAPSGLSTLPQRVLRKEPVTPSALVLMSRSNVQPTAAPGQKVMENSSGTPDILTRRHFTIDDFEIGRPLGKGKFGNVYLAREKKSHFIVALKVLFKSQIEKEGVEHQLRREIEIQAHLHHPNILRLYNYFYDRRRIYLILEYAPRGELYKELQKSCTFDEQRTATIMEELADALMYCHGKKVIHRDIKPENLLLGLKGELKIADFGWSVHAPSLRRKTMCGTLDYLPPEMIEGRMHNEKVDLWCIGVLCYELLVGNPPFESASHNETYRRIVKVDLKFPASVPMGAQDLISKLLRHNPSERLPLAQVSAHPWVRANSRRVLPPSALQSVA
How it was run: as §1

[5] = target: T4, TTK (MV4-11^HiBiT-TTK cells) (Homo sapiens, UniProt P33981); experiment: HiBiT assay, TTK degradation; type: cell-based; set-up: key to Dmax (maximal degradation) TTK: compounds with degradation less than 15% reported as “inactive”; details: 6 h treatment, MV4-11^HiBiT-TTK cells
T4 construct: expressed in transfected cells; host or cells: MV4-11, lentiviral transduction (pRRL-PGK-HiBiT entry vector)
T4 sequence (P33981 1-857): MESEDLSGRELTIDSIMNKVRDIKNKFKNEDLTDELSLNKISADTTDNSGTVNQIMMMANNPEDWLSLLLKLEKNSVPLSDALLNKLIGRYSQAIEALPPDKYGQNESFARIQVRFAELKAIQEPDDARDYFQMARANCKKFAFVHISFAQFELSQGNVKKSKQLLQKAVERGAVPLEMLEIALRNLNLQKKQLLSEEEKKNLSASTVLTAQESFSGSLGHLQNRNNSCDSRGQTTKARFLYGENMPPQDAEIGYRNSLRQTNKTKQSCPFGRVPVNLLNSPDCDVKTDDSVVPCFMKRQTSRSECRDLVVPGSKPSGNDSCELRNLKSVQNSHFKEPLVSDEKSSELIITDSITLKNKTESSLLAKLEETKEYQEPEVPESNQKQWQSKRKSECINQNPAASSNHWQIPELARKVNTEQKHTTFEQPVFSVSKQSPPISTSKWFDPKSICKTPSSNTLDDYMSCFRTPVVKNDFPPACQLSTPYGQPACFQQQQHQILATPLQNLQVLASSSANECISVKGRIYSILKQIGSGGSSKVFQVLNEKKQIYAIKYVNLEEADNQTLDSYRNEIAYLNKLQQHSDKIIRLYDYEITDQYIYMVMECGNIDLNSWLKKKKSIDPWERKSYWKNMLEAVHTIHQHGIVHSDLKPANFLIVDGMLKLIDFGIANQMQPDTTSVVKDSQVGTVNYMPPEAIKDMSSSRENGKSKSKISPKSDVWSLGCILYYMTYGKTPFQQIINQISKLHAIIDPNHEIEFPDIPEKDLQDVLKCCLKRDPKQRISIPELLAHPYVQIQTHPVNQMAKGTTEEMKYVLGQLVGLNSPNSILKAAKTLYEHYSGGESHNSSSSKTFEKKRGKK
How it was run: as §1

[6] = test system: human TTK; set-up: method as in PMID 23940287, PMID 32338514, PMID 27905678, PMID 27437075, PMID 30232224; details: literature values, introduction and Figure 1; cited from earlier work
[7] = test system: AURKC; details: read-out: AURKC IC50; literature value, introduction; cited from earlier work
[8] = test system: TTK; set-up: method as in PMID 35084180; details: reported PROTAC; cited from earlier work
[9] = test system: AURKB; set-up: method as in PMID 32338514, PMID 27905678, PMID 27437075, PMID 30232224, PMID 27699881; details: literature values, introduction and Figure 1; cited from earlier work
[10] = test system: AURKA; set-up: method as in PMID 32338514, PMID 27905678, PMID 27437075, PMID 30232224, PMID 27699881; details: literature values, introduction and Figure 1; cited from earlier work
[11] = test system: AURKA; details: reported PROTACs; cited from earlier work

## Cc1ncsc1-c1ccc(CNC(=O)[C@@H]2C[C@@H](O)CN2C(=O)[C@@H](NC(=O)CCC(=O)NCC(=O)N2CCN(c3ccc(Nc4nc(Nc5ccccc5S(=O)(=O)C(C)C)c5nc[nH]c5n4)cc3)CC2)C(C)(C)C)cc1 [Compound 47]
[1]
  DC50 (half-maximal degradation concentration) AURKA: – (compounds with degradation less than 25% were not calculated and reported as “–”)
  Dmax (maximal degradation) AURKA: 21.70%
[2]
  EC50 (concentration that decreases cell viability by 50%): — (compounds with decrease of cell viability less than 50% were not calculated and reported as “—”)
[3]
  relative AURKB level (immunoblot quantification, vehicle = 1.00): 1.00
[4]
  DC50 (half-maximal degradation concentration) AURKB: – (compounds with degradation less than 25% were not calculated and reported as “–”)
  Dmax (maximal degradation) AURKB: 20.20%
[5]
  DC50 (half-maximal degradation concentration) TTK: – (compounds with degradation less than 25% were not calculated and reported as “–”)
  Dmax (maximal degradation) TTK: inactive

## COc1cc(S(C)(=O)=O)ccc1Nc1nc2ccc(-c3ccc(NC(=O)[C@H](C)c4ccc(F)cc4)cc3)cn2n1 [BAY1161909]
[6]
  IC50: 1 nM

## COc1cc(N2CCC(O)CC2)ccc1Nc1nc(Nc2ccccc2S(=O)(=O)C(C)C)c2nc[nH]c2n1 [MPS1-IN-3, reference compound]
[1]; read-out: DC50 (half-maximal degradation concentration) AURKA
  DC50: 998 nM
[1]; read-out: Dmax (maximal degradation) AURKA
  Dmax: 41.7%
[2]; Homo sapiens, read-out: EC50 (concentration that decreases cell viability by 50%)
  EC50: 1270 nM
[6]
  IC50: 50 nM
[4]; read-out: DC50 (half-maximal degradation concentration) AURKB
  DC50: 3.21 µM
[4]; read-out: Dmax (maximal degradation) AURKB
  Dmax: 43.3%
[5]
  DC50 (half-maximal degradation concentration) TTK: – (compounds with degradation less than 25% were not calculated and reported as “–”)
  Dmax (maximal degradation) TTK: inactive

## c1nc2nc(Nc3ccc(N4CCOCC4)cc3)nc(NC3CCCCC3)c2[nH]1 [Reversine]
[7]
  IC50: 400 nM

## CCC(=O)N[C@H]1CC[C@@H](n2c(=O)cc(C)c3cnc(Nc4ccc(N5CCN(C(=O)CCCC#Cc6ccc7c(c6)CN(C6CCC(=O)NC6=O)C7=O)CC5)cc4OC)nc32)CC1 (stereo partly drawn) [LJB-1113157]
[8]
  DC50: 3.1 nM

## O=C(Nc1c[nH]nc1-c1nc2ccc(CN3CCOCC3)cc2[nH]1)NC1CC1 [AT9283]
[9]
  IC50: 3 nM
[10]
  IC50: 3 nM

## COc1cc(Nc2ncc3c(n2)-c2ccc(Cl)cc2C(c2c(F)cccc2OC)=NC3)ccc1C(=O)NCCOCCOCCNC(=O)COc1cccc2c1C(=O)N(C1CCC(=O)NC1=O)C2=O (stereo not drawn) [JB170]
[11]
  DC50: 28 nM

## Cc1cc(-c2cnn3c(NC[C@H]4C[C@@](C)(O)C4)cc(Oc4cccnc4)nc23)ccc1C(=O)NC1CC1 [CFI-402257]
[6]
  IC50: 1 nM

## O=C(COc1cccc2c1C(=O)N(C1CCC(=O)NC1=O)C2=O)NCCOCCOCCNC(=O)C1(Cc2cccc(Nc3nccs3)n2)CCC(Oc2cccc(Cl)c2F)CC1 (stereo not drawn) [JB300]
[11]
  DC50: 30 nM
